For one compound, Kd results are on record in EP0857177B1, “PROCESS FOR THE PREPARATION OF A SINGLE CHAIN FV ANTIBODY FRAGMENT” (Novartis AG, priority 1995, dated 1997).

In the assay the test system is anti-phOx-scFv (αphOx15-scFv with c-myc tag), purified monomeric, expressed in Sf9 insect cells. Description: Surface plasmon resonance (BIAcore) measurement of the monovalent interaction between immobilised scFv and phOx. Type of assay: binding. Conditions: monomeric anti-phOx-scFv amine-coupled to CM5 sensor chip (2160 RU); phOx offered as analyte phOx20.5BSA in HBS pH 7.4; BSA background RU subtracted; derived from differential RU at different phOx concentrations; error of 12.6% for the slope. On the procedure: A second independent assay is employed to confirm the low affinity of the monovalent interaction between anti-phOx-scFv and phOx. Surface plasmon resonance signals (Kretschmann, E. and Raether, H. (1968) Z. Naturforsch. 23a, 2135-2136; Liedberg, et al., (1983) Sensors and Actuators 4, 299-304) are recorded with a BlAcore machine (Pharmacia Biosensor AB; Jönsson, et al., (1991) BioTechniques 11, 620-627; Chaiken, et al., (1992) Anal. Biochem. 201, 197-210). Purified monomeric anti-phOx-scFv at a concentration of 40 µg/ml in 5 mM maionic acid pH 6.0 / 0.05% [v/v] Tween-20 is coupled to a CM5 sensor chip using the Amine Coupling Kit (Pharmacia) as described earlier (Johnsson, et al., (1991) Anal. Biochem. 198, 268-277). Via amino groups, 2160 RU of the purified monomeric anti-phOx-scFv is immobilised to the sensor chip (i.e., about 2 ng/mm^2 chip surface; Stenberg, et al., (1991) J. Colloid Interface Sci. 143, 513-526).The activation time is adjusted to 7 min at a flow rate of 5 µl/min. For immobilisation 35 µl of the scFv sample are injected to the chip at the same flow rate. […]
Since a notable background binding of BSA to the modified chip is observed, it is indispensable to record the scFv binding events for both analytes phOx20.5BSA and BSA. […] KD can be derived from the differential RU measured at different phOx concentrations before dissociation is initiated.
On the technique in general: Surface plasmon resonance follows binding to a sensor surface in real time, without labels.

As usually defined, the Kd is the equilibrium constant for the complex coming apart. `CCO/C=C1/N=C(c2ccccc2)OC1=O` [phOx]: the Kd was 84.7 µM.
